Where two headings read alike, the source gives them in different places.
Experiments:
[1] = system: individuals with type 2 diabetes; assay: Hypoglycaemia awareness question 'Do you feel hypo?' during hypoglycaemia induction; type: in vivo, human; settings: subgroup
Protocol: Hypoglycaemia awareness was determined by asking the question, ‘Do you feel hypo?’, to the participant.

cortisol = assay: Counterregulatory hormone response: serum cortisol (electrochemiluminescent immunoassay); type: in vivo, human; settings: serum, subgroup; for Cortisol at PGnadir, estimated geometric mean: n=19 icodec
Protocol: (§1) Plasma concentrations of glucagon were measured by an enzyme-linked immunosorbent assay (Mercodia AB, Uppsala, Sweden). Plasma concentrations of adrenaline (epinephrine) and noradrenaline (norepinephrine) were measured by liquid chromatography-mass spectrometry (Thermo Fisher Scientific, Dreieich, Germany). Serum concentrations of cortisol and growth hormone were measured by electrochemiluminescent immunoassays (Roche Diagnostics, Mannheim, Germany).

type 1 diabetes = settings: cited from earlier work
Excerpt: In addition, the low insulin receptor binding affinity of icodec contributes to its long half-life by reducing the clearance rate, as insulin is mainly cleared by internalisation following binding to and activation of the insulin receptor [9, 10]. In case of excess amounts of icodec throughout the body, e.g ...

glucagon = assay: Counterregulatory hormone response: plasma glucagon (ELISA); type: in vivo, human; settings: plasma, subgroup
Protocol: as §1

adrenaline (epinephrine) = assay: Counterregulatory hormone response: plasma adrenaline (LC-MS); type: in vivo, human; settings: plasma, subgroup
Protocol: as §1

[2] = system: individuals with type 2 diabetes; settings: in vivo
Excerpt: Safety assessments during the trial included adverse events (AEs), hypoglycaemic episodes (other than those induced), vital signs (other than those assessed during hypoglycaemia induction), electrocardiograms, physical examinations and clinical laboratory assessments (haematology, biochemistry and urinalysis).
AEs and hypoglycaemic episodes (other than those induced) during the treatment periods were summarised. The end of each treatment period was defined as 7 days after the last icodec dose and 2 days after the last glargine U100 dose. […] Hypoglycaemic episodes were classified as level 1 (PG <3.9 mmol/l and ≥3.0 mmol/l), level 2 (PG <3.0 mmol/l) and level 3 (severe cognitive impairment requiring assistance for recovery) [20].

[3] = system: individuals with type 2 diabetes; type: in vivo, human; settings: for Mean PGnadir, estimated geometric mean: all participants; for Time to recovery from PGnadir to PG5.5 mmol/l, estimated geometric mean: constant i.v. glucose 5.5 mg kg^−1 min^−1; for Time to recovery from PGnadir to PG5.5 mmol/l, estimated geometric mean / Glucose needed from PGnadir to PG5.5 mmol/l, estimated geometric mean: individuals with PG <3.3 mmol/l at initiation of recovery; for Time to decline from PG5.5 mmol/l to PG3.9 mmol/l, estimated geometric mean: individuals with PG decline to <3.0 mmol/l and/or hypoglycaemia symptoms; for Time to decline from PG5.5 mmol/l to PG3.0 mmol/l, estimated geometric mean: individuals with PG decline to <3.0 mmol/l; for Mean PGnadir in the subgroup analysis: subgroup PGnadir <3.0 mmol/l and/or symptoms
Protocol: During the two treatment periods, participants received once-weekly icodec for 6 weeks or once-daily glargine U100 for 11 days in randomised order. […] Treatment periods were separated by 35–49 days of washout following icodec and 4–11 days of washout following glargine U100. Icodec (4200 nmol/ml; Novo Nordisk, Bagsværd, Denmark) was administered s.c. in the left thigh at 20:00 hours by qualified site staff using a NovoPen 4 pen injector (Novo Nordisk). […] At the start of week 1, a one-time additional 100% icodec dose was administered to accelerate time to steady state, followed by a normal dose at week 2, a double dose at week 3 (prior to hypoglycaemia induction), no dose at week 4 (due to the double dose given the week before), a normal dose at week 5, and a triple dose at week 6 (prior to hypoglycaemia induction). Insulin glargine U100 (100 U/ml [600 nmol/ml]; Sanofi, Paris, France) was administered s.c. in the right thigh at 09:00 hours by qualified site staff using a SoloStar pen injector (Sanofi). A normal dose of once-daily glargine U100 was established during run in. Glargine U100 was administered at a normal dose for 3 days followed by a double dose on day 4 (prior to hypoglycaemia induction), no dose on day 5 (due to the double dose given the day before), then a normal dose for 5 days, and a triple dose on day 11 (prior to hypoglycaemia induction).
Hypoglycaemia induction was carried out during weeks 3 (double dose) and 6 (triple dose) for icodec and on days 4 (double dose) and 11 (triple dose) for glargine U100 while at steady state. To initiate hypoglycaemia induction, participants should not have experienced hypoglycaemia (PG <3.9 mmol/l) within 24 h or have any relevant medical condition that could confound the outcomes or pose unacceptable risk to the participant. Hypoglycaemia induction (Fig. 1b) was initiated at 16:00 hours 2 days after double/triple icodec dosing (44 h post dose) and on the day of double/triple glargine U100 dosing (7 h post dose). These timings were selected since they approximated the expected time of maximum glucose-lowering effect for both insulin products based on pharmacokinetic/pharmacodynamic modelling performed prior to the trial. For 7.5 h prior to hypoglycaemia induction, PG was kept at 5.5 mmol/l by variable i.v. infusion of glucose (20% wt/vol) or human soluble insulin (100 U/ml in 99.6 ml saline [154 mmol/l NaCl]). PG was measured by a Super GL2 Glucose Analyzer (Dr. Müller Gerätebau, Freital, Germany). Insulin infusion was terminated 60 min prior to hypoglycaemia induction at the latest. PG was maintained at 5.5 mmol/l±20% from 60 min to 30 min prior to hypoglycaemia induction and at 5.5 mmol/l±10% during the last 30 min prior to hypoglycaemia induction. Hypoglycaemia induction was initiated by terminating glucose infusion, thereby allowing PG to decline towards the minimum (nadir) PG target level of no less than 2.5 mmol/l. The handling of alternative scenarios, e.g. PGnadir >2.5 mmol/l, slow PG decline towards hypoglycaemia or slow recovery from hypoglycaemia, is described in electronic supplementary material (ESM) Methods. The investigator recorded if the PGnadir was <3.0 mmol/l or ≥3.0 mmol/l with hypoglycaemic symptoms. The PGnadir level was maintained for 15 min by variable i.v. glucose as needed. Subsequently, euglycaemia was restored by constant i.v. glucose (5.5 mg kg^−1 min^−1) until PG was 5.5 mmol/l, which was maintained until the next morning (between 07:00 hours and 09:00 hours) by variable i.v. glucose. During hypoglycaemia induction, participants remained fasted (except for water ad libitum) and stayed in a supine or semi-supine position (except when cognitive tests were performed). Participants stayed at the clinical site for at least 12 h following each hypoglycaemia induction experiment. […]

[4] = system: noradrenaline (norepinephrine); assay: Counterregulatory hormone response: plasma noradrenaline (LC-MS); type: in vivo, human; settings: plasma, subgroup
Protocol: as §1

growth hormone = assay: Counterregulatory hormone response: serum growth hormone (electrochemiluminescent immunoassay); type: in vivo, human; settings: serum, subgroup; for Growth hormone at PGnadir, estimated geometric mean: n=19 icodec
Protocol: as §1

[5] = double dose, n=17 icodec, 15 glargine U100
[6] = triple dose, n=20 icodec, 28 glargine U100
[7] = triple dose, n=20 icodec, 29 glargine U100
[8] = double dose, n=20 icodec, 19 glargine U100
[9] = double dose, n=15 icodec, 13 glargine U100
[10] = triple dose, n=18 icodec, 22 glargine U100

insulin glargine U100
Proportion of individuals answering 'Yes' to 'Do you feel hypo?' ([1]; double dose, at PG3.0 mmol/l, n=9/17 icodec, 2/15 glargine U100): 13.3% | Proportion of individuals answering 'Yes' to 'Do you feel hypo?' ([1]; double dose, at PGnadir, n=14/20 icodec, 10/19 glargine U100): 52.6% | Proportion of individuals answering 'Yes' to 'Do you feel hypo?' ([1]; triple dose, at PG3.0 mmol/l, n=5/20 icodec, 8/28 glargine U100): 28.6% | Proportion of individuals answering 'Yes' to 'Do you feel hypo?' ([1]; triple dose, at PGnadir, n=9/20 icodec, 15/29 glargine U100): 51.7% | Cortisol at PG3.0 mmol/l, estimated geometric mean (cortisol; [5]): 153.8 nmol/L | Cortisol at PGnadir, estimated geometric mean (cortisol; double dose, 19 glargine U100): 300.3 nmol/L | Cortisol at PGnadir, estimated geometric mean (cortisol; triple dose, 29 glargine U100): 197.6 nmol/L | Cortisol at PG3.0 mmol/l, estimated geometric mean (cortisol; [6]): 122.9 nmol/L | Participants with clinically significant hypoglycaemia (type 1 diabetes; in vivo): almost all participants | Glucagon at PG3.0 mmol/l, estimated geometric mean (glucagon; [5]): 47.7 ng/L | Glucagon at PGnadir, estimated geometric mean (glucagon; double dose, n=19 icodec, 19 glargine U100): 53.1 ng/L | Glucagon at PG3.0 mmol/l, estimated geometric mean (glucagon; [6]): 51.6 ng/L | Glucagon at PGnadir, estimated geometric mean (glucagon; [7]): 59.1 ng/L | Adrenaline at PG3.0 mmol/l, estimated geometric mean (adrenaline (epinephrine); [5]): 528.3 pmol/L | Adrenaline at PGnadir, estimated geometric mean (adrenaline (epinephrine); [8]): 590.9 pmol/L | Adrenaline at PG3.0 mmol/l, estimated geometric mean (adrenaline (epinephrine); [6]): 312.2 pmol/L | Adrenaline at PGnadir, estimated geometric mean (adrenaline (epinephrine); [7]): 570.9 pmol/L | AE rate [2]: 21.3 AEs per participant-year of exposure | Duration of level 2 hypoglycaemic episodes, mean±SD [2]: 37.7 ± 15.0 min | Number of AEs reported [2]: 33 AEs | Rate of clinically significant hypoglycaemic episodes (level 2, PG <3.0 mmol/l) [2]: 3.0 episodes per participant-year of exposure | Severe hypoglycaemic episodes (level 3) [2]: no severe hypoglycaemic episodes | Time to full recovery from hypoglycaemia ([3]; constant i.v. glucose infusion at 5.5 mg kg^−1 min^−1, double and triple doses): ≤ 30 min | Mean PGnadir, estimated geometric mean ([3]; double dose, n=43 icodec, 42 glargine U100): 3.3 mmol/L | Time to recovery from PGnadir to PG5.5 mmol/l, estimated geometric mean [3, 9]: 21.0 min | Glucose needed from PGnadir to PG5.5 mmol/l, estimated geometric mean [3, 9]: 111 mg/kg | Time to decline from PG5.5 mmol/l to PG3.9 mmol/l, estimated geometric mean [3, 8]: 1.1 h | Time to decline from PG5.5 mmol/l to PG3.0 mmol/l, estimated geometric mean [3, 5]: 4.5 h | Mean PGnadir in the subgroup analysis ([3]; double dose): 2.9 mmol/L | Mean PGnadir, estimated geometric mean ([3]; triple dose, n=38 icodec, 40 glargine U100): 2.9 mmol/L | Time to recovery from PGnadir to PG5.5 mmol/l, estimated geometric mean [3, 10]: 23.3 min | Glucose needed from PGnadir to PG5.5 mmol/l, estimated geometric mean [3, 10]: 115 mg/kg | Time to decline from PG5.5 mmol/l to PG3.9 mmol/l, estimated geometric mean [3, 7]: 0.7 h | Time to decline from PG5.5 mmol/l to PG3.0 mmol/l, estimated geometric mean [3, 6]: 2.2 h | Mean PGnadir in the subgroup analysis ([3]; triple dose): 2.7 mmol/L | Noradrenaline at PG3.0 mmol/l, estimated geometric mean [4, 5]: 853.0 pmol/L | Noradrenaline at PGnadir, estimated geometric mean [4, 8]: 907.4 pmol/L | Noradrenaline at PG3.0 mmol/l, estimated geometric mean [4, 6]: 843.0 pmol/L | Noradrenaline at PGnadir, estimated geometric mean [4, 7]: 890.5 pmol/L | Growth hormone at PG3.0 mmol/l, estimated geometric mean (growth hormone; [5]): 4.1 µg/L | Growth hormone at PGnadir, estimated geometric mean (growth hormone; double dose, 19 glargine U100): 3.5 µg/L | Growth hormone at PGnadir, estimated geometric mean (growth hormone; triple dose, 29 glargine U100): 3.5 µg/L | Growth hormone at PG3.0 mmol/l, estimated geometric mean (growth hormone; [6]): 2.4 µg/L

neutral protamine Hagedorn insulin
Participants with clinically significant hypoglycaemia (type 1 diabetes; in vivo): 78%

insulin degludec
Participants with clinically significant hypoglycaemia (type 1 diabetes; type 1 diabetes, triple doses, ref [8], [24]): almost all participants

insulin detemir
Participants with clinically significant hypoglycaemia (type 1 diabetes; in vivo): 78%

From PMC10317887, “Hypoglycaemia frequency and physiological response after double or triple doses of once-weekly insulin icodec vs once-daily insulin glargine U100 in type 2 diabetes: a randomised crossover trial” (Diabetologia, 2023)
